In ChEMBL document CHEMBL3286107, “Synthesis of C,N'-linked bis-heterocycles using a deprotometalation-iodination-N-arylation sequence and evaluation of their antiproliferative activity in melanoma cells” (Bioorg Med Chem, 2014):
Activity calls are given as the source filed them. The calls are words filed in the database; no cut-off is given here.

Experiments:
A2058 [1] = experiment: Growth inhibition of human A2058 cells at 10 uM after 72 hrs by MTT assay; assay type: functional
A2058 [2] = experiment: Antiproliferative activity against human A2058 cells assessed as inhibition of cell growth after 72 hrs by MTT assay; assay type: functional, cell-based; settings: A2058, 72 h

SMILES	growth inhibition (GI) (A2058 [1])	IC50 (A2058 [2]) [µM]	inhibition of growth at 10 µM (A2058 [1]; A2058, 72 h, read-out: GI) [%]
c1ccc2oc(-n3cnc4ccccc43)nc2c1	Active	–	–
c1ccc2oc(-n3cnc4ccccc43)cc2c1	Active	–	–
c1ccc2oc(-n3ccnc3)nc2c1	–	7.1	84.3
c1ccc2sc(-n3cnc4ccccc43)cc2c1	Active	–	–
c1ccc2sc(-n3cnc4ccccc43)nc2c1	Active	–	–
